{"source": "patent US4293695A", "about": "“Furonaphthyridine compounds” (Daiichi Seiyaku Co., Ltd., priority 1978, dated 1981)", "key": {"K. pneumoniae, Type 1": {"test_system": "K. pneumoniae, Type 1", "test": "MIC, dilution method on plate culture (heart infusion agar)", "type": "cell-based", "conditions": "Klebsiella pneumoniae, TYPE1, 10^6/ml bacteria, 37° C., 18 hours, read-out: Minimum Inhibitory Concentration (MIC)", "experimental": "(§1) Thus, these compounds are very useful anti-bacterial agents. The anti-bacterial activity (in vitro) and the acute toxicity (LD50) of the compounds of this invention are shown in the following Table in comparison with known oxolinic acid.\n(§2) *Determined by the standard method of Japan Society of Chemotherapy:\n(§3) dilution method on plate culture (heart infusion agar culture), 10^6\n(§4) /ml of bacteria were seeded and incubated at 37° C. for 18 hours."}, "Ent. cloacae 12001": {"test_system": "Ent. cloacae 12001", "test": "MIC, dilution method on plate culture (heart infusion agar)", "type": "cell-based", "conditions": "Enterobacter cloacae, 10^6/ml bacteria, 37° C., 18 hours, read-out: Minimum Inhibitory Concentration (MIC)", "experimental": "as §1, §2, §3, §4"}, "E. coli NIHJ": {"test_system": "E. coli NIHJ", "test": "MIC, dilution method on plate culture (heart infusion agar)", "type": "cell-based", "conditions": "Escherichia coli, 10^6/ml bacteria, 37° C., 18 hours, read-out: Minimum Inhibitory Concentration (MIC)", "experimental": "as §1, §2, §3, §4"}, "Ser. marcescens 13014": {"test_system": "Ser. marcescens 13014", "test": "MIC, dilution method on plate culture (heart infusion agar)", "type": "cell-based", "conditions": "Serratia marcescens, 10^6/ml bacteria, 37° C., 18 hours, read-out: Minimum Inhibitory Concentration (MIC)", "experimental": "as §1, §2, §3, §4"}, "Ps. aeruginosa 2063": {"test_system": "Ps. aeruginosa 2063", "test": "MIC, dilution method on plate culture (heart infusion agar)", "type": "cell-based", "conditions": "Pseudomonas aeruginosa, 10^6/ml bacteria, 37° C., 18 hours, read-out: Minimum Inhibitory Concentration (MIC)", "experimental": "as §1, §2, §3, §4"}, "S. aureus": {"test_system": "S. aureus", "test": "MIC, dilution method on plate culture (heart infusion agar)", "type": "cell-based", "conditions": "Staphylococcus aureus, 10^6/ml bacteria, 37° C., 18 hours, read-out: Minimum Inhibitory Concentration (MIC)", "experimental": "as §1, §2, §3, §4"}, "acute toxicity (LD50)": {"test": "acute toxicity (LD50)", "conditions": "mouse, in vivo, iv; mice i.v.", "from_the_text": "as §1"}, "Pr. vulgaris": {"test_system": "Pr. vulgaris", "test": "MIC, dilution method on plate culture (heart infusion agar)", "type": "cell-based", "conditions": "Proteus vulgaris, 10^6/ml bacteria, 37° C., 18 hours, read-out: Minimum Inhibitory Concentration (MIC)", "experimental": "as §1, §2, §3, §4"}, "Pr. mirabilis": {"test_system": "Pr. mirabilis", "test": "MIC, dilution method on plate culture (heart infusion agar)", "type": "cell-based", "conditions": "Proteus mirabilis, 10^6/ml bacteria, 37° C., 18 hours, read-out: Minimum Inhibitory Concentration (MIC)", "experimental": "as §1, §2, §3, §4"}}}
{"smiles": "CCn1cc(C(=O)O)c(=O)c2cc3c(cc21)OCO3", "note": "[Oxolinic Acid, 5-ethyl-5,8-dihydro-8-oxo-1,3-dioxolo[4,5-g]quinoline-7-carboxylic acid, reference compound]", "values": [{"measurement": "MIC", "setting": "K. pneumoniae, Type 1", "value": 3.1, "unit": "µg/mL"}, {"measurement": "MIC", "setting": "Ent. cloacae 12001", "value": 0.8, "unit": "µg/mL"}, {"measurement": "MIC", "setting": "E. coli NIHJ", "value": "≤ 0.2", "unit": "µg/mL"}, {"measurement": "MIC", "setting": "Ser. marcescens 13014", "value": 0.8, "unit": "µg/mL"}, {"measurement": "MIC", "setting": "Ps. aeruginosa 2063", "value": 25, "unit": "µg/mL"}, {"measurement": "MIC", "setting": "S. aureus", "value": 3.1, "unit": "µg/mL"}]}
{"smiles": "CCn1cc(C(=O)O)c(=O)c2cc3occc3nc21", "note": "[Compound Ia, 5,8-dihydro-5-ethyl-8-oxofuro[3,2-b]-1,8-naphthyridine-7-carboxylic acid]", "values": [{"measurement": "LD50", "setting": "acute toxicity (LD50)", "value": 221, "unit": "mg/kg"}, {"measurement": "MIC", "setting": "Pr. vulgaris", "value": "≤ 0.2", "unit": "µg/mL"}, {"measurement": "MIC", "setting": "K. pneumoniae, Type 1", "value": 1.6, "unit": "µg/mL"}, {"measurement": "MIC", "setting": "Ent. cloacae 12001", "value": 0.4, "unit": "µg/mL"}, {"measurement": "MIC", "setting": "E. coli NIHJ", "value": "≤ 0.2", "unit": "µg/mL"}, {"measurement": "MIC", "setting": "Ser. marcescens 13014", "value": 0.4, "unit": "µg/mL"}, {"measurement": "MIC", "setting": "Ps. aeruginosa 2063", "value": 3.1, "unit": "µg/mL"}, {"measurement": "MIC", "setting": "S. aureus", "value": 3.1, "unit": "µg/mL"}, {"measurement": "MIC", "setting": "Pr. mirabilis", "value": "≤ 0.2", "unit": "µg/mL"}]}
{"smiles": "CCn1cc(C(=O)O)c(=O)c2cc3c(nc21)CCO3", "note": "[Compound Ib, 5-ethyl-8-oxo-2,3,5,8-tetrahydrofuro[3,2-b]-1,8-naphthyridine-7-carboxylicacid]", "values": [{"measurement": "LD50", "setting": "acute toxicity (LD50)", "value": 376, "unit": "mg/kg"}, {"measurement": "MIC", "setting": "Pr. vulgaris", "value": "≤ 0.2", "unit": "µg/mL"}, {"measurement": "MIC", "setting": "K. pneumoniae, Type 1", "value": 0.8, "unit": "µg/mL"}, {"measurement": "MIC", "setting": "Ent. cloacae 12001", "value": "≤ 0.2", "unit": "µg/mL"}, {"measurement": "MIC", "setting": "E. coli NIHJ", "value": "≤ 0.2", "unit": "µg/mL"}, {"measurement": "MIC", "setting": "Ser. marcescens 13014", "value": "≤ 0.2", "unit": "µg/mL"}, {"measurement": "MIC", "setting": "Ps. aeruginosa 2063", "value": 6.3, "unit": "µg/mL"}, {"measurement": "MIC", "setting": "S. aureus", "value": 3.1, "unit": "µg/mL"}, {"measurement": "MIC", "setting": "Pr. mirabilis", "value": "≤ 0.2", "unit": "µg/mL"}]}
